# Experimental data reported in patent US9738634B2, “Heterocyclic amide compound and herbicide” (SYNGENTA PARTICIPATIONS AG, priority 2013, dated 2017).
# Columns and labels:
# Type in all cases: in vivo
# Details in all cases: treatment dosage 320 g/ha
# green foxtail [1] = test: Test Example 3: weedkilling efficacy through soil treatment; E: green foxtail
# How it was run: (§1)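 Crop and weed responses were judged three weeks after a uniform surface spray of the water-diluted emulsion at the given g/ha rate. Seeds sat beneath about 1.5 cm of sterilized diluvial soil, and boxes stood in a greenhouse at 25 to 30° C.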
# bulrush [2] = test: Test Example 1: weedkilling efficacy, preemergent weed treatment in the submerged state; B: bulrush
# How it was run: (§2)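 Alluvial soil in Wagner pots flooded to 4 cm; barnyard grass, bulrush and oval-leafed pondweed seeds sown, then 2.5-leaf rice seedlings transplanted. Same day, emulsified compound diluted in water to set g/ha dosages and applied to water surface; greenhouse 25–30 °C, effect scored by criteria after 3 weeks.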
# directly sown rice [3] = test: Test Example 3: soil treatment, effect on crop; b: directly sown rice
# How it was run: as §1
# soybean [4] = test: Test Example 4: foliar treatment, effect on crop; d: soybean
# How it was run: (§3)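 Seeds are spot-sown into sterilized diluvial soil and covered with about 1.5 cm of soil. After 14 days' greenhouse growth at 25 to 30° C, plants are sprayed on stems and leaves with diluted emulsion at the stated g/ha rate, then scored at 3 weeks.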
# wild oat [5] = test: Test Example 3: weedkilling efficacy through soil treatment; G: wild oat
# How it was run: as §1
# wheat [6] = test: Test Example 3: soil treatment, effect on crop; e: wheat
# How it was run: as §1
# wheat [7] = test: Test Example 4: foliar treatment, effect on crop; e: wheat
# How it was run: as §3
# Italian ryegrass [8] = test: Test Example 3: weedkilling efficacy through soil treatment; I: Italian ryegrass
# How it was run: as §1
# common wind-grass [9] = test: Test Example 4: weedkilling efficacy by foliar treatment; J: common wind-grass
# How it was run: as §3
# barnyard grass [10] = test: Test Example 3: weedkilling efficacy through soil treatment; F: barnyard grass
# How it was run: as §1
# barnyard grass [11] = test: Test Example 2: weedkilling efficacy, growth period weed treatment in the submerged state; A: barnyard grass
# How it was run: (§4)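 First, alluvial soil in pots is flooded to 4 cm and mixed seed is sown. Next, plants grow in a greenhouse at 25 to 30° C until the 1-2 leaf stage. Then diluted emulsion is applied onto the water surface at the given g/ha rate, and injury is assessed after 3 weeks.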
# catchweed [12] = test: Test Example 3: weedkilling efficacy through soil treatment; O: catchweed
# How it was run: as §1
# transplanted rice = test: Test Example 1: preemergent weed treatment in the submerged state, effect on crop; a: transplanted rice
# How it was run: as §2
# black-grass [13] = test: Test Example 4: weedkilling efficacy by foliar treatment; H: black-grass
# How it was run: as §3
# directly sown rice [14] = test: Test Example 4: foliar treatment, effect on crop; b: directly sown rice
# How it was run: as §3
# wild oat [15] = test: Test Example 4: weedkilling efficacy by foliar treatment; G: wild oat
# How it was run: as §3
# chickweed [16] = test: Test Example 3: weedkilling efficacy through soil treatment; N: chickweed
# How it was run: as §1
# fig-leafed goosefoot [17] = test: Test Example 4: weedkilling efficacy by foliar treatment; M: fig-leafed goosefoot
# How it was run: as §3
# fig-leafed goosefoot [18] = test: Test Example 3: weedkilling efficacy through soil treatment; M: fig-leafed goosefoot
# How it was run: as §1
# redroot pigweed [19] = test: Test Example 4: weedkilling efficacy by foliar treatment; L: redroot pigweed
# How it was run: as §3
# green foxtail [20] = test: Test Example 4: weedkilling efficacy by foliar treatment; E: green foxtail
# How it was run: as §3
# common wind-grass [21] = test: Test Example 3: weedkilling efficacy through soil treatment; J: common wind-grass
# How it was run: as §1
# crabgrass [22] = test: Test Example 3: weedkilling efficacy through soil treatment; D: crabgrass
# How it was run: as §1
# oval-leafed pondweed [23] = test: Test Example 2: weedkilling efficacy, growth period weed treatment in the submerged state; C: oval-leafed pondweed
# How it was run: as §4
# oval-leafed pondweed [24] = test: Test Example 1: weedkilling efficacy, preemergent weed treatment in the submerged state; C: oval-leafed pondweed
# How it was run: as §2
# beet [25] = test: Test Example 4: foliar treatment, effect on crop; f: beet
# How it was run: as §3
# rapeseed [26] = test: Test Example 4: foliar treatment, effect on crop; g: rapeseed
# How it was run: as §3
# Italian ryegrass [27] = test: Test Example 4: weedkilling efficacy by foliar treatment; I: Italian ryegrass
# How it was run: as §3
# corn [28] = test: Test Example 4: foliar treatment, effect on crop; c: corn
# How it was run: as §3
# barnyard grass [29] = test: Test Example 1: weedkilling efficacy, preemergent weed treatment in the submerged state; A: barnyard grass
# How it was run: as §2
# soybean [30] = test: Test Example 3: soil treatment, effect on crop; d: soybean
# How it was run: as §1
# barnyard grass [31] = test: Test Example 4: weedkilling efficacy by foliar treatment; F: barnyard grass
# How it was run: as §3
# catchweed [32] = test: Test Example 4: weedkilling efficacy by foliar treatment; O: catchweed
# How it was run: as §3
# birds-eye speedwell [33] = test: Test Example 4: weedkilling efficacy by foliar treatment; p: birds-eye speedwell
# How it was run: as §3
# bulrush [34] = test: Test Example 2: weedkilling efficacy, growth period weed treatment in the submerged state; B: bulrush
# How it was run: as §4
# corn [35] = test: Test Example 3: soil treatment, effect on crop; c: corn
# How it was run: as §1
# rapeseed [36] = test: Test Example 3: soil treatment, effect on crop; g: rapeseed
# How it was run: as §1
# beet [37] = test: Test Example 3: soil treatment, effect on crop; f: beet
# How it was run: as §1
# crabgrass [38] = test: Test Example 4: weedkilling efficacy by foliar treatment; D: crabgrass
# How it was run: as §3
# birds-eye speedwell [39] = test: Test Example 3: weedkilling efficacy through soil treatment; p: birds-eye speedwell
# How it was run: as §1
# redroot pigweed [40] = test: Test Example 3: weedkilling efficacy through soil treatment; L: redroot pigweed
# How it was run: as §1
# chickweed [41] = test: Test Example 4: weedkilling efficacy by foliar treatment; N: chickweed
# How it was run: as §3
# Indian mallow [42] = test: Test Example 3: weedkilling efficacy through soil treatment; K: Indian mallow
# How it was run: as §1
# black-grass [43] = test: Test Example 3: weedkilling efficacy through soil treatment; H: black-grass
# How it was run: as §1
# Indian mallow [44] = test: Test Example 4: weedkilling efficacy by foliar treatment; K: Indian mallow
# How it was run: as §3
smiles,measurement,setting,value
CC1=C(c2ccccc2)C(=O)N(C(C)(C)C(=O)Nc2cc(C)cc(F)n2)CO1 [B-2-38],E (green foxtail) weedkilling efficacy grade,green foxtail [1],"5 (weed kill ratio 90% or more, (practically complete withering))"
same,B (bulrush) weedkilling efficacy grade,bulrush [2],"5 (weed kill ratio 90% or more, (practically complete withering))"
same,b (directly sown rice) effect on crop grade,directly sown rice [3],"5 (weed kill ratio 90% or more, (practically complete withering))"
same,d (soybean) effect on crop grade,soybean [4],"4 (weed kill ratio 70% or more, less than 90%)"
same,G (wild oat) weedkilling efficacy grade,wild oat [5],"5 (weed kill ratio 90% or more, (practically complete withering))"
same,e (wheat) effect on crop grade,wheat [6],0 (weed kill ratio 5% or less (practically no effect))
same,e (wheat) effect on crop grade,wheat [7],"1 (weed kill ratio 5% or more, less than 20%)"
same,I (Italian ryegrass) weedkilling efficacy grade,Italian ryegrass [8],"5 (weed kill ratio 90% or more, (practically complete withering))"
same,J (common wind-grass) weedkilling efficacy grade,common wind-grass [9],"5 (weed kill ratio 90% or more, (practically complete withering))"
same,F (barnyard grass) weedkilling efficacy grade,barnyard grass [10],"5 (weed kill ratio 90% or more, (practically complete withering))"
same,A (barnyard grass) weedkilling efficacy grade,barnyard grass [11],"5 (weed kill ratio 90% or more, (practically complete withering))"
same,O (catchweed) weedkilling efficacy grade,catchweed [12],"5 (weed kill ratio 90% or more, (practically complete withering))"
same,a (transplanted rice) effect on crop grade,transplanted rice,"3 (weed kill ratio 40% or more, less than 70%)"
same,H (black-grass) weedkilling efficacy grade,black-grass [13],"5 (weed kill ratio 90% or more, (practically complete withering))"
same,b (directly sown rice) effect on crop grade,directly sown rice [14],"5 (weed kill ratio 90% or more, (practically complete withering))"
same,G (wild oat) weedkilling efficacy grade,wild oat [15],"5 (weed kill ratio 90% or more, (practically complete withering))"
same,N (chickweed) weedkilling efficacy grade,chickweed [16],"4 (weed kill ratio 70% or more, less than 90%)"
same,M (fig-leafed goosefoot) weedkilling efficacy grade,fig-leafed goosefoot [17],"4 (weed kill ratio 70% or more, less than 90%)"
same,M (fig-leafed goosefoot) weedkilling efficacy grade,fig-leafed goosefoot [18],"4 (weed kill ratio 70% or more, less than 90%)"
same,L (redroot pigweed) weedkilling efficacy grade,redroot pigweed [19],"4 (weed kill ratio 70% or more, less than 90%)"
same,E (green foxtail) weedkilling efficacy grade,green foxtail [20],"5 (weed kill ratio 90% or more, (practically complete withering))"
same,J (common wind-grass) weedkilling efficacy grade,common wind-grass [21],"5 (weed kill ratio 90% or more, (practically complete withering))"
same,D (crabgrass) weedkilling efficacy grade,crabgrass [22],"5 (weed kill ratio 90% or more, (practically complete withering))"
same,C (oval-leafed pondweed) weedkilling efficacy grade,oval-leafed pondweed [23],"5 (weed kill ratio 90% or more, (practically complete withering))"
same,C (oval-leafed pondweed) weedkilling efficacy grade,oval-leafed pondweed [24],"5 (weed kill ratio 90% or more, (practically complete withering))"
same,f (beet) effect on crop grade,beet [25],"4 (weed kill ratio 70% or more, less than 90%)"
same,g (rapeseed) effect on crop grade,rapeseed [26],"4 (weed kill ratio 70% or more, less than 90%)"
same,I (Italian ryegrass) weedkilling efficacy grade,Italian ryegrass [27],"5 (weed kill ratio 90% or more, (practically complete withering))"
same,c (corn) effect on crop grade,corn [28],"5 (weed kill ratio 90% or more, (practically complete withering))"
same,A (barnyard grass) weedkilling efficacy grade,barnyard grass [29],"5 (weed kill ratio 90% or more, (practically complete withering))"
same,d (soybean) effect on crop grade,soybean [30],"4 (weed kill ratio 70% or more, less than 90%)"
same,F (barnyard grass) weedkilling efficacy grade,barnyard grass [31],"5 (weed kill ratio 90% or more, (practically complete withering))"
same,O (catchweed) weedkilling efficacy grade,catchweed [32],"4 (weed kill ratio 70% or more, less than 90%)"
same,P (birds-eye speedwell) weedkilling efficacy grade,birds-eye speedwell [33],"4 (weed kill ratio 70% or more, less than 90%)"
same,B (bulrush) weedkilling efficacy grade,bulrush [34],"5 (weed kill ratio 90% or more, (practically complete withering))"
same,c (corn) effect on crop grade,corn [35],"1 (weed kill ratio 5% or more, less than 20%)"
same,g (rapeseed) effect on crop grade,rapeseed [36],"4 (weed kill ratio 70% or more, less than 90%)"
same,f (beet) effect on crop grade,beet [37],"4 (weed kill ratio 70% or more, less than 90%)"
same,D (crabgrass) weedkilling efficacy grade,crabgrass [38],"5 (weed kill ratio 90% or more, (practically complete withering))"
same,P (birds-eye speedwell) weedkilling efficacy grade,birds-eye speedwell [39],"5 (weed kill ratio 90% or more, (practically complete withering))"
same,L (redroot pigweed) weedkilling efficacy grade,redroot pigweed [40],"3 (weed kill ratio 40% or more, less than 70%)"
same,N (chickweed) weedkilling efficacy grade,chickweed [41],"4 (weed kill ratio 70% or more, less than 90%)"
same,K (Indian mallow) weedkilling efficacy grade,Indian mallow [42],"1 (weed kill ratio 5% or more, less than 20%)"
same,H (black-grass) weedkilling efficacy grade,black-grass [43],"5 (weed kill ratio 90% or more, (practically complete withering))"
same,K (Indian mallow) weedkilling efficacy grade,Indian mallow [44],"4 (weed kill ratio 70% or more, less than 90%)"
